One data set addresses T1, recombinant human CYP2C8 (Homo sapiens, UniProt P10632).
T1 construct: purchased Cypex Ltd. (Dundee, UK)
T1 sequence (P10632 1-490): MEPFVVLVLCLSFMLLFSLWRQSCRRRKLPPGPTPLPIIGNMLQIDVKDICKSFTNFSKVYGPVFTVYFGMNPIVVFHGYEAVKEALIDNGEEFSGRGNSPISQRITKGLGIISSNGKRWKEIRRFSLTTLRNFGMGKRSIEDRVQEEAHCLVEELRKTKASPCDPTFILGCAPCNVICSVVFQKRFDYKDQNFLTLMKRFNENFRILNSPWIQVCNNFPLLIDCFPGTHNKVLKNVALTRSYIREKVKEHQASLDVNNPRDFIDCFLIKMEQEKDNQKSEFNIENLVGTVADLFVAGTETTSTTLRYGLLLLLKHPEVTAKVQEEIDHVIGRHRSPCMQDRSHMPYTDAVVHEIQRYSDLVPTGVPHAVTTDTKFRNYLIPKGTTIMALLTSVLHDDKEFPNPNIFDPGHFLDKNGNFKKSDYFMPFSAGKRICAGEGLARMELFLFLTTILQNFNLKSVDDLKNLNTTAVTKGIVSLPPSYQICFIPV
Put plainly: Metabolic stability in recombinant human CYP isoenzymes. Type of data set: in vitro ADME. The settings on record: rCYP2C8 100 pmol P450/mL, 1 µM. As to the method:
(§1) To identify the specific isoform that participates in the metabolism of BPI-460372, 1 µM BPI-460372 or positive control substrates were mixed with recombinant human CYP1A2, 2B6, 2C8, 2C9, 2C19, 2D6 or 3A4 (100 pmol P450·mL^-1), and the reaction was started by the addition of NADPH (1 mM final concentration) after 5-minute preincubation at 37°C. Aliquots were maintained in acetonitrile containing IS at different time points at 0 min, 5 min, 10 min, 20 min, 30 min, and 60 min. All incubations were performed in triplicate, and the concentration of the supernatant was determined by LC-MS/MS.
(§2) A substrate depletion approach was employed to determine the intrinsic clearance (CLint (rCYPj)) for each isoform. The contribution of each isoform was estimated using equations 2 and 3. CYPj abundance was evaluated as the abundance (CYPj) of each isoform in HLMs (pmol/mg protein).

Another data set deals with T2, recombinant human CYP3A4 (Homo sapiens, UniProt P08684).
T2 construct: purchased Cypex Ltd. (Dundee, UK)
T2 sequence (P08684 whole entry): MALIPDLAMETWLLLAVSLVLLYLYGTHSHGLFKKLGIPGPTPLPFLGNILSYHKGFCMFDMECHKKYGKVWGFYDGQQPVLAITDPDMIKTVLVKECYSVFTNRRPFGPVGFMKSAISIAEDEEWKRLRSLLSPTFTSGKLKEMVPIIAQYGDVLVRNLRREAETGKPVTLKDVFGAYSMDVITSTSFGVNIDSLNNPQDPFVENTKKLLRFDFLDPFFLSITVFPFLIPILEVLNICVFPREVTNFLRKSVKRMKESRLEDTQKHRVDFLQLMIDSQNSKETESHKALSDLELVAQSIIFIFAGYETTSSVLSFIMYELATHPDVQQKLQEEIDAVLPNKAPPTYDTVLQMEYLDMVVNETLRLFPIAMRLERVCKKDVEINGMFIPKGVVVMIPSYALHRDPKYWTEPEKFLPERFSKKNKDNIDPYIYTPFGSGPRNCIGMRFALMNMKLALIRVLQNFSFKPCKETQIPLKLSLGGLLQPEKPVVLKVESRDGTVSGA
The data set is described as above. The note with it: rCYP3A4 100 pmol P450/mL, 1 µM. Type of data set: in vitro ADME. As to the method: as §1, §2

The nature of a further data set: In vivo clearance. The settings on record: monkeys.
The test system of a further data set is TEAD proteins. More on the design: method as in doi:10.1158/1538-7445.AM2023-501. The settings on record: cited from earlier work.
A short description of the next data set: Stability in plasma. Type of data set: in vitro ADME. The settings on record: dog plasma, 37°C, 4 h.

As to `C=C(F)C(=O)N1CC(n2c(=O)n(-c3ccc(C(F)(F)F)cc3)c3nccnc32)C1` [BPI-460372], the Contribution worked out at 8.8% on recombinant human CYP2C8 and 28.3% at recombinant human CYP3A4. In addition, the Clearance in vivo entry in the data set “In vivo clearance” was “low clearance”. Besides, the “Covalent binding to TEAD1/3/4” value in the data set on TEAD proteins (2-fluoro acrylamide warhead) is “covalently bind to the Cys-368 residue”. The Off-target covalent binding entry in the data set on TEAD proteins was “without significant off-target covalent binding affinity”. Moreover, the Stability in plasma result in “Stability in plasma” is reported as “stable”.

The values above are taken from paper PMC12376128, “In vitro and In Vivo Drug Metabolism Analysis of BPI-460372 - A Covalent TEAD1/3/4 Inhibitor” (Current Drug Metabolism, 2025).
